From EP1400530A1, “Suppression of immune response via inhibition of cathepsin S” (MASSACHUSETTS INSTITUTE OF TECHNOLOGY, priority 1996, dated 1997)

Tests used:
[1] = target: cathepsin B (Homo sapiens, UniProt P07858); experiment: Active site labeling of cysteine proteases with Cbz-[125I]-Tyr-Ala-CN2 in HOM2 cells after preincubation with inhibitor; settings: inhibitor concentration of 5 nM
[2] = target: cathepsin S (Homo sapiens, UniProt P25774); experiment: as above; settings: LHVS concentration of 1 nM, 37°C 1 hour prior to labeling
Sequence of cathepsin S (P25774 115-331): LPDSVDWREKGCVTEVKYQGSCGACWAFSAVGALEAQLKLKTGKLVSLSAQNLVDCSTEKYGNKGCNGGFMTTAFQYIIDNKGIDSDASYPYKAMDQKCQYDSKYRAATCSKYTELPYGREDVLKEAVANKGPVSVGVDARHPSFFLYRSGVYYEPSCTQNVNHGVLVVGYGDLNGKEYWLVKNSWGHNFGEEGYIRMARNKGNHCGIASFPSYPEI

[3] = target: T1, cathepsin H (Homo sapiens, UniProt P09668); experiment: Inhibition of purified human cathepsin H; type: biochemical; settings: concentration not given
T1 sequence (P09668 98-335): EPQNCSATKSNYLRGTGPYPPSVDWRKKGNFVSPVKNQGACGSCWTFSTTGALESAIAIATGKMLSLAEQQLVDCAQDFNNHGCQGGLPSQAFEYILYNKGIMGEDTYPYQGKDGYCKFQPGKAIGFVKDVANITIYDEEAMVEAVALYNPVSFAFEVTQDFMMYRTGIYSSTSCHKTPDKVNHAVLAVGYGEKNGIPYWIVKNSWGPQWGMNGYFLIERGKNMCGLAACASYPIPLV

[4] = tested on: Peripheral blood mononuclear cells (PBMC's); type: cell-based, human; settings: 3-5 days
[5] = tested on: HOM2 cells; experiment: 35S-methionine/cysteine pulse/chase of HOM2 cells, immunoprecipitation of class II with Tu36, SDS-PAGE (Ii processing and SDS-stable peptide-loaded αβ dimers)
[6] = target: cathepsin D (Homo sapiens, UniProt P07339); settings: Alteri et al. 1993; cited from earlier work
Sequence of cathepsin D (Homo sapiens, UniProt P07339) (P07339 65-412): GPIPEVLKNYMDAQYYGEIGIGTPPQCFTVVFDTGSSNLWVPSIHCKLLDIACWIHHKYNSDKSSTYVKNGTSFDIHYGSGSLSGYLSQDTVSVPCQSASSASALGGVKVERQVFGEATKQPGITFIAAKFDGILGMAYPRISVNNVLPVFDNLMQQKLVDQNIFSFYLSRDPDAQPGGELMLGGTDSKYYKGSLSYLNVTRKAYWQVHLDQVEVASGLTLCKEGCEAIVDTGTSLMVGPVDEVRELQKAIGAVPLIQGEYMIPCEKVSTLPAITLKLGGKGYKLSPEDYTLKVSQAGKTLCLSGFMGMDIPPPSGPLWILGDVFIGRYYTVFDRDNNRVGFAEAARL

[7] = tested on: cathepsin D; experiment: Inhibition of cathepsin D activity in human monocytes; type: cell-based

Question: For `CC(C)C[C@H](NC(=O)N1CCOCC1)C(=O)N[C@H](/C=C/S(=O)(=O)c1ccccc1)CCc1ccccc1` [LHVS, morpholinurea-leucine-homophenylalanine-vinylsulfone phenyl], which “labeling of cathepsin B” value [1] is on record?
Answer: The value was “decreased, although some activity remained”.

Question: And the “labeling of cathepsin S” value [2]?
Answer: Its value is “effectively inhibited”.

Question: And the “inhibition of purified human cathepsin H” value [3]?
Answer: The value was “not inhibited”.

Question: And the “attenuation of 3H-thymidine uptake response to tetanus toxoid” value [4]?
Answer: Its value is “approximately 60%”.

Question: What about the “formation of SDS-stable complexes (peptide loading)” value ([5]; 1 nM and 5 nM LHVS, chase 5 hours) of the same compound?
Answer: The value was “marked decrease”.

Question: Which SDS-stable dimer formation ([5]; E64D, concentration not stated in Example 2) does the source give for `CCOC(=O)[C@H]1O[C@@H]1C(=O)N[C@@H](CC(C)C)C(=O)NCCC(C)C` (relative stereo) [E64D] here?
Answer: The SDS-stable dimer formation was “decrease”.

Question: Which “inhibits cathepsin D” value [6] does the source give for `CC(C)[C@H](NC(=O)[C@H](Cc1ccccc1)C[C@H](O)[C@H](Cc1ccccc1)NC(=O)OC(C)(C)C)C(=O)N[C@@H](Cc1ccccc1)C(=O)N1CCOCC1` [CGP 53437] here?
Answer: The value was “nanomolar range”.

Question: And the SDS-stable complexes ([5]; 5 µM or 50 µM CGP 53437, chase 5 hours)?
Answer: Its SDS-stable complexes is “nor did it produce a decrease”.

Question: What about the “inhibits cathepsin D activity in human monocytes” value ([7]; 5 µM) of the same compound?
Answer: The value was 75%.

Question: And the “inhibits cathepsin D activity in human monocytes” value ([7]; 50 µM)?
Answer: Its value is 90%.
